Experimental data reported in patent US12304920B2, “Platinum complex, its preparation and therapeutic use” (CITY UNIVERSITY OF HONG KONG, priority 2020, dated 2025).

How the values were obtained:
[1] = test system: Human ovarian A2780 cells; experiment: MTT cytotoxicity test, A2780; assay type: cell-based; settings: 72 h, medium with 1% DMF (no DMF for 3a and 3b)
Experimental: (§1) Human ovarian A2780 and cisplatin-resistant A2780cisR cells were maintained in Roswell Park […] (RPMI) 1640 medium supported with 10% FBS, 2 mM L-glutamine, and 100 unit/mL penicillin/streptomycin. Human lung carcinoma A549 cells, cisplatin-resistant A549cisR cells, and human breast MCF-7 cells were cultured in Dulbecco's Modified Eagle Medium (DMEM) with 10% FBS and 100 units penicillin/streptomycin.
(§2) The viability of cancer cells exposed to the compounds was evaluated by means of MTT assay. Cells were seeded in 96-well plates at a density of 3,000 cells per well and incubated until the cell confluency reached 50%. Then, the medium was removed and replaced with fresh medium containing different concentrations of complexes with 1% DMF. For complex 3a and 3b with A2780, A2780CisR, A549 and A549CisR cells, the medium used for replacement contains no DMF. After 72 h, the medium was changed to serum-free medium containing 1 mg/mL MTT. After 2 h additional incubation, the medium was removed, and DMSO (200 μL) was delivered to each well to dissolve the formed purple formazan. The absorbance at 570 nm and 730 nm of each well was measured using a microplate reader (BioTek PowerWave XS).

[2] = test system: cisplatin-resistant A2780cisR cells; experiment: MTT cytotoxicity test, A2780cisR; assay type: cell-based, Human; settings: 72 h, medium with 1% DMF (no DMF for 3a and 3b)
Experimental: as §1, §2

[3] = test system: Human lung carcinoma A549 cells; experiment: MTT cytotoxicity test, A549; assay type: cell-based; settings: 72 h, medium with 1% DMF (no DMF for 3a and 3b)
Experimental: as §1, §2

[4] = test system: cisplatin-resistant A549cisR cells; experiment: MTT cytotoxicity test, A549cisR; assay type: cell-based, Human; settings: 72 h, medium with 1% DMF (no DMF for 3a and 3b)
Experimental: as §1, §2

human breast MCF-7 cells = experiment: MTT cytotoxicity test, MCF-7; assay type: cell-based; settings: 72 h, medium with 1% DMF
Experimental: as §1, §2

Molecule | IC50 [1] | IC50 [2] | IC50 [3] | IC50 [4] | IC50 (human breast MCF-7 cells)
N.N.[Cl][Pt][Cl] [cisplatin, reference compound] | 2.1 ± 0.6 µM | 23 ± 6 µM | 2 ± 0.1 µM | 12 ± 1 µM | 18 ± 3 µM
[Pt(C26H24P2)2]Cl2 [Complex 3a] | 12 ± 3 µM | 5 ± 1 µM | 3.6 ± 0.2 µM | 1.3 ± 0.1 µM | 7 ± 1 µM
[Pt(C54H52P2)]Cl2 [Complex 3b] | 0.23 ± 0.09 µM | 2.6 ± 0.6 µM | 0.48 ± 0.02 µM | 0.07 ± 0.01 µM | 0.2 ± 0.01 µM
t-[Pt(acetato)2(C9H17P)2] [Complex 2a] | 8 ± 1 µM | 7 ± 2 µM | 28 ± 3 µM |  | 7 ± 1 µM
t-[Pt(acetato)2(C17H14NP)2] [Complex 2e] | > 9.4 µM | > 9.4 µM | > 11.1 µM |  | > 9.4 µM
t-[Pt(acetato)2(C18H12Cl3P)2] [Complex 2c] | 4 ± 1 µM | 4 ± 1 µM | 24 ± 7 µM |  | 18 ± 2 µM
t-[Pt(acetato)2(C18H21P)2] [Complex 2d] | > 2.4 µM | > 2.4 µM | > 2.7 µM |  | > 2.4 µM
t-[Pt(acetato)2(C21H21P)2] [Complex 2b] | 4 ± 1 µM | 4 ± 1 µM | 6.1 ± 0.3 µM |  | 4 ± 0.3 µM
t-[Pt(acetato)2(PPh3)2] [Complex 1a] | 4.3 ± 0.6 µM | 3.3 ± 0.8 µM | 3.3 ± 0.6 µM | 5 ± 1 µM | 10 ± 1 µM
t-[Pt(acetato)(benzoato)(PPh3)2] [Complex 1d] | 4.9 ± 0.6 µM | 3.1 ± 0.2 µM | 5 ± 3 µM | 5 ± 1 µM | 
t-[Pt(phthalato)2(PPh3)2] [Complex 1c] | 18 ± 3 µM | 10 ± 2 µM | 7 ± 1 µM | 7 ± 2 µM | 
t-[Pt(succinato)2(PPh3)2] [Complex 1b] | 15 ± 1 µM | 13 ± 1 µM | 5.3 ± 0.6 µM | 8 ± 5 µM | 
t-[Pt(succinato)(benzoato)(PPh3)2] [Complex 1e] | 8 ± 4 µM | 7.2 ± 0.2 µM | 5 ± 0.8 µM | 5 ± 2 µM | 
